According to ChEMBL document CHEMBL3784918, “Novel 2,4-diaminopyrimidines bearing tetrahydronaphthalenyl moiety against anaplastic lymphoma kinase (ALK): Synthesis, in vitro, ex vivo, and in vivo efficacy studies” (Bioorg Med Chem Lett, 2016):
Calls of active or inactive are those of the source. No cut-off for these calls is given here.

Tests used:
[1] = Tmax in cannulated Sprague Dawley rat at 10 mg/kg administered through oral gavage by LC/MS/MS analysis; assay type: ADME, organism-based; conditions: in vivo
CYP1A2 = CYP1A2 (Homo sapiens, UniProt P05177); test: Inhibition of CYP1A2 (unknown origin) at 10 uM; assay type: ADME
CYP2C9 = CYP2C9 (Homo sapiens, UniProt P11712); test: Inhibition of CYP2C9 (unknown origin) at 10 uM; assay type: ADME
CYP2D6 = CYP2D6 (Homo sapiens, UniProt P10635); test: Inhibition of CYP2D6 (unknown origin) at 10 uM; assay type: ADME
CYP3A4 = CYP3A4 (Homo sapiens, UniProt P08684); test: Inhibition of CYP3A4 (unknown origin) at 10 uM; assay type: ADME
CYP2C19 = CYP2C19 (Homo sapiens, UniProt P33261); test: Inhibition of CYP2C19 (unknown origin) at 10 uM; assay type: ADME
[2] = Cmax in cannulated Sprague Dawley rat at 10 mg/kg administered through oral gavage by LC/MS/MS analysis; assay type: ADME, organism-based; parameters: dose 10 mg/kg, route oral; conditions: in vivo
[3] = Half life in cannulated Sprague Dawley rat at 10 mg/kg administered through oral gavage by LC/MS/MS analysis; assay type: ADME, organism-based; conditions: in vivo
[4] = AUCt in cannulated Sprague Dawley rat at 10 mg/kg administered through oral gavage by LC/MS/MS analysis; assay type: ADME, organism-based; conditions: in vivo
[5] = AUCinfinity in cannulated Sprague Dawley rat at 10 mg/kg administered through oral gavage by LC/MS/MS analysis; assay type: ADME, organism-based; parameters: dose 10 mg/kg, time infinity, route oral; conditions: in vivo
NCI-H3122 [6] = test: Antitumor activity against human NCI-H3122 cells xenografted in SCID mouse assessed as tumor growth inhibition at 50 mg/kg, po administered qd for 14 days; assay type: functional, organism-based
NCI-H3122 [7] = test: Antitumor activity against human NCI-H3122 cells xenografted in SCID mouse assessed as tumor growth inhibition at 25 mg/kg, po administered qd for 14 days; assay type: functional, organism-based
[8] = target: Focal adhesion kinase 1 (Homo sapiens) (UniProt Q05397); test: Inhibition of human FAK at 1 uM after 30 mins by fluorescence assay in presence of ATP
[9] = target: Insulin receptor (Homo sapiens) (UniProt P06213); test: Inhibition of human IR at 1 uM after 30 mins by fluorescence assay in presence of ATP
[10] = target: Activated CDC42 kinase 1 (Homo sapiens) (UniProt Q07912); test: Inhibition of human ACK1 at 1 uM after 30 mins by fluorescence assay in presence of ATP
[11] = target: Fibroblast growth factor receptor 1 (Homo sapiens) (UniProt P11362); test: Inhibition of human FGFR1 at 1 uM after 30 mins by fluorescence assay in presence of ATP
[12] = target: Receptor-type tyrosine-protein kinase FLT3 (Homo sapiens) (UniProt P36888); test: Inhibition of human FLT3 at 1 uM after 30 mins by fluorescence assay in presence of ATP
[13] = target: Tyrosine-protein kinase Mer (Homo sapiens) (UniProt Q12866); test: Inhibition of human MER at 1 uM after 30 mins by fluorescence assay in presence of ATP
[14] = target: Ribosomal protein S6 kinase alpha-1 (Homo sapiens) (UniProt Q15418); test: Inhibition of human RSK1 at 1 uM after 30 mins by fluorescence assay in presence of ATP
[15] = target: T1, ALK tyrosine kinase receptor (Homo sapiens, UniProt Q9UM73); test: Inhibition of human ALK at 1 uM after 30 mins by fluorescence assay in presence of ATP
[16] = target: Insulin-like growth factor 1 receptor (Homo sapiens) (UniProt P08069); test: Inhibition of human IGF1R at 1 uM after 30 mins by fluorescence assay in presence of ATP
[17] = target: Aurora kinase A (Homo sapiens) (UniProt O14965); test: Inhibition of human Aurora A at 1 uM after 30 mins by fluorescence assay in presence of ATP
[18] = target: Serine/threonine-protein kinase Chk2 (Homo sapiens) (UniProt O96017); test: Inhibition of human CHK2 at 1 uM after 30 mins by fluorescence assay in presence of ATP
[19] = target: Epidermal growth factor receptor (Homo sapiens) (UniProt P00533); test: Inhibition of human EGFR at 1 uM after 30 mins by fluorescence assay in presence of ATP
[20] = target: Protein-tyrosine kinase 2-beta (Homo sapiens) (UniProt Q14289); test: Inhibition of human PYK2 at 1 uM after 30 mins by fluorescence assay in presence of ATP
[21] = target: Aurora kinase B (Homo sapiens) (UniProt Q96GD4); test: Inhibition of human Aurora B at 1 uM after 30 mins by fluorescence assay in presence of ATP
[22] = target: Tyrosine-protein kinase receptor UFO (Homo sapiens) (UniProt P30530); test: Inhibition of human AXL at 1 uM after 30 mins by fluorescence assay in presence of ATP
[23] = target: NUAK family SNF1-like kinase 1 (Homo sapiens) (UniProt O60285); test: Inhibition of human ARK5 at 1 uM after 30 mins by fluorescence assay in presence of ATP
[24] = target: Serine/threonine-protein kinase 10 (Homo sapiens) (UniProt O94804); test: Inhibition of human LOK at 1 uM after 30 mins by fluorescence assay in presence of ATP
[25] = target: Proto-oncogene tyrosine-protein kinase ROS (Homo sapiens) (UniProt P08922); test: Inhibition of human ROS at 1 uM after 30 mins by fluorescence assay in presence of ATP
[26] = target: Serine/threonine-protein kinase TAO1 (Homo sapiens) (UniProt Q7L7X3); test: Inhibition of human TAO1 at 1 uM after 30 mins by fluorescence assay in presence of ATP
[27] = target: Testis-specific serine/threonine-protein kinase 1 (Homo sapiens) (UniProt Q9BXA7); test: Inhibition of human TSSK1 at 1 uM after 30 mins by fluorescence assay in presence of ATP
[28] = target: High affinity nerve growth factor receptor (Homo sapiens) (UniProt P04629); test: Inhibition of human TRKA at 1 uM after 30 mins by fluorescence assay in presence of ATP
[29] = target: Tyrosine-protein kinase Yes (Homo sapiens) (UniProt P07947); test: Inhibition of human YES at 1 uM after 30 mins by fluorescence assay in presence of ATP
[30] = target: Serine/threonine-protein kinase N2 (Homo sapiens) (UniProt Q16513); test: Inhibition of human PRK2 at 1 uM after 30 mins by fluorescence assay in presence of ATP
[31] = target: Ephrin type-B receptor 1 (Homo sapiens) (UniProt P54762); test: Inhibition of human EPHB1 at 1 uM after 30 mins by fluorescence assay in presence of ATP
[32] = target: Rho-associated protein kinase 2 (Homo sapiens) (UniProt O75116); test: Inhibition of human ROCK2 at 1 uM after 30 mins by fluorescence assay in presence of ATP
[33] = target: Ephrin type-A receptor 1 (Homo sapiens) (UniProt P21709); test: Inhibition of human EPHA1 at 1 uM after 30 mins by fluorescence assay in presence of ATP
Mus musculus [34] = test: Toxicity in SCID mouse xenografted with human H3122 cells assessed as change in body weight at 25 mg/kg, po administered qd for 14 days measured during compound dosing; assay type: organism-based; conditions: in vivo, 336 h
Mus musculus [35] = test: Toxicity in SCID mouse xenografted with human H3122 cells assessed as change in body weight at 50 mg/kg, po administered qd for 14 days measured during compound dosing; assay type: organism-based; conditions: in vivo, 336 h
[36] = target: T1, ALK tyrosine kinase receptor; test: Inhibition of wild type ALK (unknown origin) after 30 mins by HTRF assay
[37] = target: ALK tyrosine kinase receptor (Homo sapiens, UniProt Q9UM73, L1196M); test: Inhibition of ALK L1196M mutant (unknown origin) after 30 mins by HTRF assay
EML4-ALK (Homo sapiens) = EML4-ALK (Homo sapiens) (UniProt Q9UM73+Q9HC35); test: Inhibition of EML4-ALK in human NCI-H3122 cells assessed as inhibition of cell proliferation after 72 hrs by SRB assay; assay type: cell-based
BaF3 = test: Inhibition of ALK L1196M mutant in mouse BA/F3 cells assessed as inhibition of cell proliferation after 72 hrs by WST1 assay; assay type: cell-based
[38] = Metabolic stability of the compound in human liver microsomes assessed as compound remaining at 1 uM after 30 mins by LC/MS/MS analysis in the presence of NADPH; assay type: ADME; conditions: read-out: Stability
[39] = Metabolic stability of the compound in mouse liver microsomes assessed as compound remaining at 1 uM after 30 mins by LC/MS/MS analysis in the presence of NADPH; assay type: ADME; conditions: read-out: Stability

Serine/threonine-protein kinase 10 (Homo sapiens), sequence (O94804 whole entry, looked up): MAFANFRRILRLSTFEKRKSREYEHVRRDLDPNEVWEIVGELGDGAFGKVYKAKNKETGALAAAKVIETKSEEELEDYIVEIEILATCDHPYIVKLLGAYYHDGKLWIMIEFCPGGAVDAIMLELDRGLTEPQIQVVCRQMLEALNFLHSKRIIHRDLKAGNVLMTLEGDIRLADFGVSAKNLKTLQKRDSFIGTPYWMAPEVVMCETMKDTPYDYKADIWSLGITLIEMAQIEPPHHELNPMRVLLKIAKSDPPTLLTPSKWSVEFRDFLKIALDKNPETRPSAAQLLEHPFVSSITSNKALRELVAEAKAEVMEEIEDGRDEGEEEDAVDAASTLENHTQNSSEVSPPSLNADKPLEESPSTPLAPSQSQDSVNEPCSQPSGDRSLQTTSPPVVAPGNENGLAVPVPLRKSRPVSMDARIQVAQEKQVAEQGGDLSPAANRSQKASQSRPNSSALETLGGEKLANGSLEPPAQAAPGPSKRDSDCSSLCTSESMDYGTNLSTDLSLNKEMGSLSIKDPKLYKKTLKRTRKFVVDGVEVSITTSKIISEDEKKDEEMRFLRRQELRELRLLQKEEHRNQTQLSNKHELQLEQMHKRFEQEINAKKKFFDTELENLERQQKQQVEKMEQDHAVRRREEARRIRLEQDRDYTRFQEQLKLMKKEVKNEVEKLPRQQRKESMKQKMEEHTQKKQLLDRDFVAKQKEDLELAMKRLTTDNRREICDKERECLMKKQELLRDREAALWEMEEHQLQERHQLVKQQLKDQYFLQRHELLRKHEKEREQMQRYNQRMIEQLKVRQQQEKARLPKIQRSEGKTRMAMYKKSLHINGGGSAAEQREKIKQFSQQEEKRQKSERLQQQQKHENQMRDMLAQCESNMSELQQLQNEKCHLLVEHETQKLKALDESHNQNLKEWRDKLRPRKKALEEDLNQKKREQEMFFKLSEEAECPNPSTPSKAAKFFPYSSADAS
High affinity nerve growth factor receptor (Homo sapiens), sequence (P04629 33-796 limits assumed): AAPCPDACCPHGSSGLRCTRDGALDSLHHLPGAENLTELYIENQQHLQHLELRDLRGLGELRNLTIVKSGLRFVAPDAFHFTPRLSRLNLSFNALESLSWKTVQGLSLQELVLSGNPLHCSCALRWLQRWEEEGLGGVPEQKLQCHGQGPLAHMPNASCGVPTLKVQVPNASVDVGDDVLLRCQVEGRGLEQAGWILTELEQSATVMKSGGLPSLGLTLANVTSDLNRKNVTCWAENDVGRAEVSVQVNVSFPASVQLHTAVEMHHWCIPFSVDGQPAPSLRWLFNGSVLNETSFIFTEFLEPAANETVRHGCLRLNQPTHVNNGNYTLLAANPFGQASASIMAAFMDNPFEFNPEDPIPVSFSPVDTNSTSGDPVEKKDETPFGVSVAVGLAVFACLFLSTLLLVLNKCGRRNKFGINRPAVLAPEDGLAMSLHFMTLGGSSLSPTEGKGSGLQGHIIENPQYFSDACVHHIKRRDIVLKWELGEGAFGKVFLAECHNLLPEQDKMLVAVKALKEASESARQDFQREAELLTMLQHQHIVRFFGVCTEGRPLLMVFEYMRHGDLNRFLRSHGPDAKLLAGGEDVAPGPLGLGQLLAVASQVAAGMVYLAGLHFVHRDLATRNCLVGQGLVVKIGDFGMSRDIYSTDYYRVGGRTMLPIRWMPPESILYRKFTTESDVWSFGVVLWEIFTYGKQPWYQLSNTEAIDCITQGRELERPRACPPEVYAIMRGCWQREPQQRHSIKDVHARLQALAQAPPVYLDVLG
Rho-associated protein kinase 2 (Homo sapiens), sequence (O75116 whole entry, looked up): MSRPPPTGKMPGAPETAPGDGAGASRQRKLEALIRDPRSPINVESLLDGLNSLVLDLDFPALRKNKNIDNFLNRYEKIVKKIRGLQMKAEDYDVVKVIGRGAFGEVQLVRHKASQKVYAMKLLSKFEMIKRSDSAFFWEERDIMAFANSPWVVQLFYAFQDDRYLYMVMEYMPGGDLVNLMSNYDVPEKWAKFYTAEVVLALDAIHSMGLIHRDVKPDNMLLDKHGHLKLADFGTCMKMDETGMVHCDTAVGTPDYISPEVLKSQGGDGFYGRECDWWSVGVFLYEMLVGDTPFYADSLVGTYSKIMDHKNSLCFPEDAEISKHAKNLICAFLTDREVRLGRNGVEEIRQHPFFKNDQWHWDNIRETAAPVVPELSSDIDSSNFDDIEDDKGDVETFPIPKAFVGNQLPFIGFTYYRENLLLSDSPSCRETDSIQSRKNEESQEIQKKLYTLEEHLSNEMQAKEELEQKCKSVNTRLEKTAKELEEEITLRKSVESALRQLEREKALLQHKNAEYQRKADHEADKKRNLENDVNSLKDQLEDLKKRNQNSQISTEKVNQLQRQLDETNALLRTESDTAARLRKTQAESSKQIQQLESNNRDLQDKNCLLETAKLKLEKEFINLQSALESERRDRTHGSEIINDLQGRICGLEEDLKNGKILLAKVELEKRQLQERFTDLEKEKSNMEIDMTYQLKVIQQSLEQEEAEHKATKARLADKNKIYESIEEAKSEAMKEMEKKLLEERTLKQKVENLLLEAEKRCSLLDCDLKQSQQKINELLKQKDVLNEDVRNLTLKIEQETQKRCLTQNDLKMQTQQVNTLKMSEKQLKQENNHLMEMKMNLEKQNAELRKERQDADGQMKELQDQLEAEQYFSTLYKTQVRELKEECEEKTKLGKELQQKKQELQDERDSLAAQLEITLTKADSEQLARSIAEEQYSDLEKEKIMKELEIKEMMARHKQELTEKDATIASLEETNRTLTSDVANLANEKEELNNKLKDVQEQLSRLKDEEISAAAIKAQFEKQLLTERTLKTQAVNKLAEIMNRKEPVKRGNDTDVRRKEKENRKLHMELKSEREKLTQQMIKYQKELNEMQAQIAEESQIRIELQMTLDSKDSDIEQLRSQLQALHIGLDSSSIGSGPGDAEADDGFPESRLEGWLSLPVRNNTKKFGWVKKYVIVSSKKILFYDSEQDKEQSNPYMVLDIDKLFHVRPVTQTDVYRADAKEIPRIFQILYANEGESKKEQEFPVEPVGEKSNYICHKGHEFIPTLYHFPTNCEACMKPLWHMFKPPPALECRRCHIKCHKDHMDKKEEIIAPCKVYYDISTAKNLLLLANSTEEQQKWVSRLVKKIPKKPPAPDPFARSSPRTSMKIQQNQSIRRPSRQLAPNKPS
Activated CDC42 kinase 1 (Homo sapiens), sequence (Q07912 whole entry, looked up): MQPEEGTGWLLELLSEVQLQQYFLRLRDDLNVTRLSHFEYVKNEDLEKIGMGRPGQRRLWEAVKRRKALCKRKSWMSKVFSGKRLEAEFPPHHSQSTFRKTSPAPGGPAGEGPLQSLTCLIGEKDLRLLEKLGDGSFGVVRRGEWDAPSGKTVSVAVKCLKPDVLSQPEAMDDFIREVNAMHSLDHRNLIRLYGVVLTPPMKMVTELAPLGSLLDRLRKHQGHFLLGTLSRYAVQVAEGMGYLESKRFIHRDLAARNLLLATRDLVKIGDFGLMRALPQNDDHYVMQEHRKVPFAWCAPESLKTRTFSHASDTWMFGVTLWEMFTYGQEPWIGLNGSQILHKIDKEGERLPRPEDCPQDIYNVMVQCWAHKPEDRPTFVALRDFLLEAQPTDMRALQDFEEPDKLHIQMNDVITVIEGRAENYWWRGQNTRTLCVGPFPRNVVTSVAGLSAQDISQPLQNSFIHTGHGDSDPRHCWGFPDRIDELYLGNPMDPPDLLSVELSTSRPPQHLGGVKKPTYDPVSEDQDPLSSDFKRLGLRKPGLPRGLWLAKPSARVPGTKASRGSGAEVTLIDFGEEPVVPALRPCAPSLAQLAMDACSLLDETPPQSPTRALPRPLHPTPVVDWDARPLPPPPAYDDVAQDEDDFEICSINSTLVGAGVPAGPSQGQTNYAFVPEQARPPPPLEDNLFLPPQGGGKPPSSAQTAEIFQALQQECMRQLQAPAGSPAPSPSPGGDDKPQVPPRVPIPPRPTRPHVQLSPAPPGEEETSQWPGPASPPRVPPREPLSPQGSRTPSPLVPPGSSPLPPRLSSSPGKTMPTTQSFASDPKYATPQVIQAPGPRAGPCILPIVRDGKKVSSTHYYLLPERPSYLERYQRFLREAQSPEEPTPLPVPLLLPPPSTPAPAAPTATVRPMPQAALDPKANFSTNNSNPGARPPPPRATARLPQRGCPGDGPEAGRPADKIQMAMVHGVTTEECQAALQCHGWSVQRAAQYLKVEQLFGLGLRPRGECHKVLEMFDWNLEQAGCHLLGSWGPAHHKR
CYP2C19, sequence (P33261 whole entry): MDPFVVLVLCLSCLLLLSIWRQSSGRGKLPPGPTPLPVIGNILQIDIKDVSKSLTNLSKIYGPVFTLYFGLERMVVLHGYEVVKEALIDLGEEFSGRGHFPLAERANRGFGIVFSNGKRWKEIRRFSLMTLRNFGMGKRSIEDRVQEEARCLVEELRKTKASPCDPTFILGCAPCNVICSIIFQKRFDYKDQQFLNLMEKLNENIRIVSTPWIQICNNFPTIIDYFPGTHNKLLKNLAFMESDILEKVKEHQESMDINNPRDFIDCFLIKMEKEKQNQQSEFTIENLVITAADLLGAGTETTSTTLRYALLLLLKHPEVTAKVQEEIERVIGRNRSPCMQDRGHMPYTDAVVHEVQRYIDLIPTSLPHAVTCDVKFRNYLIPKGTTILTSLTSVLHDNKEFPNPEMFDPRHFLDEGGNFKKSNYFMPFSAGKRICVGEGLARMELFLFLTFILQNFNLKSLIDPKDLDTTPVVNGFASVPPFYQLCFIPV
Aurora kinase A (Homo sapiens), sequence (O14965 whole entry): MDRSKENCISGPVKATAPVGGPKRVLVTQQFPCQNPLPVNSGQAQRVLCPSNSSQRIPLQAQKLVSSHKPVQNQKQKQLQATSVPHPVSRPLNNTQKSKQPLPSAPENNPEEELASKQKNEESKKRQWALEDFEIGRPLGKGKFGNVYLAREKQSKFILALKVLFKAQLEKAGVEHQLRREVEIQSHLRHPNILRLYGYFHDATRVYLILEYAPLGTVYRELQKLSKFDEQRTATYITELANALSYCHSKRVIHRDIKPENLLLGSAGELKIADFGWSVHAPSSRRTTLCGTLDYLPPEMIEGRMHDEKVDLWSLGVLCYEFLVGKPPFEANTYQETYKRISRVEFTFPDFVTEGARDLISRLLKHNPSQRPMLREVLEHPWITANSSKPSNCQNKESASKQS

With `COc1cc2c(cc1Nc1ncc(Cl)c(Nc3ccccc3S(=O)(=O)C(C)C)n1)CCC(N)C2(C)C` (stereo unspecified) the Tmax [1] was 5.33 h, the inhibition at 10 µM (CYP1A2) was 9.5% and the inhibition at 10 µM (CYP2C9) was 38%. The inhibition at 10 µM (CYP2D6) was 31%, the inhibition at 10 µM (CYP3A4) was 97% and the inhibition at 10 µM (CYP2C19) was 72%. For the same compound, the Cmax [2] was 582 ng/mL, the half-life [3] was 9.5 h and the AUC(0-t) [4] was 8750 ng·h/mL. For the same compound, the AUC(0-inf) [5] was 10900 ng·h/mL, the TGI (NCI-H3122 [6]) was “Active” and the TGI (NCI-H3122 [7]) was “Active”. The inhibition [8] was 100%, the inhibition [9] was 100% and the inhibition [10] was 100%. It also gave an inhibition [11] of 100%, an inhibition [12] of 100% and an inhibition [13] of 100%. For the same compound, the inhibition [14] was 100%, the inhibition [15] was 100% and the inhibition [16] was 100%. For the same compound, the inhibition [17] was 99%, the inhibition [18] was 99% and the inhibition [19] was 99%. For the same compound, the inhibition [20] was 98%, the inhibition [21] was 97% and the inhibition [22] was 97%. The inhibition [23] was 96%, the inhibition [24] was 96% and the inhibition [25] was 96%. For the same compound, the inhibition [26] was 96%, the inhibition [27] was 96% and the inhibition [28] was 95%. For the same compound, the inhibition [29] was 95%, the inhibition [30] was 93% and the inhibition [31] was 92%. For the same compound, the inhibition [32] was 92%, the inhibition [33] was 91% and the Activity (Mus musculus [34]) was “Non-toxic”. For the same compound, the Activity (Mus musculus [35]) was “Non-toxic”, the IC50 [36] was 0.7 nM and the IC50 [37] was 1.5 nM. It also gave a CC50 (EML4-ALK (Homo sapiens)) of 16 nM, a CC50 (BaF3) of 62 nM and a remaining at 0.5 h, 1 µM [38] of 56%. It also gave a remaining at 0.5 h, 1 µM [39] of 23%.
